# Test results taken from patent US11998539B2, “Substituted aminoquinolones as DGKalpha inhibitors for immune activation” (Bayer Aktiengesellschaft, priority 2019, dated 2024).
# Molecular target: DGKα (Homo sapiens (Human), UniProt P23743)
# Assay: Human DGKα kinase activity inhibition assay (ADP-Glo)
# Assay type: biochemical
# Conditions: recombinant full-length human DGKα, 55 μM ATP, 7 μM 1,2-dioleoyl-sn-glycerol, read-out: IC50 values of examples in in vitro human DGKa kinase activity inhibition assays
# Procedure, shortened: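 Activity was measured as ADP production, detected by luciferase luminescence after removal of unused ATP. The enzyme was baculovirus-expressed full-length human DGKα with a C-terminal FLAG tag. The substrate was 1,2-dioleoyl-sn-glycerol in detergent micelles, and compounds came from 100× DMSO solutions.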
# DGKα, sequence (P23743 other isoform, or with tags, fused parts or gaps): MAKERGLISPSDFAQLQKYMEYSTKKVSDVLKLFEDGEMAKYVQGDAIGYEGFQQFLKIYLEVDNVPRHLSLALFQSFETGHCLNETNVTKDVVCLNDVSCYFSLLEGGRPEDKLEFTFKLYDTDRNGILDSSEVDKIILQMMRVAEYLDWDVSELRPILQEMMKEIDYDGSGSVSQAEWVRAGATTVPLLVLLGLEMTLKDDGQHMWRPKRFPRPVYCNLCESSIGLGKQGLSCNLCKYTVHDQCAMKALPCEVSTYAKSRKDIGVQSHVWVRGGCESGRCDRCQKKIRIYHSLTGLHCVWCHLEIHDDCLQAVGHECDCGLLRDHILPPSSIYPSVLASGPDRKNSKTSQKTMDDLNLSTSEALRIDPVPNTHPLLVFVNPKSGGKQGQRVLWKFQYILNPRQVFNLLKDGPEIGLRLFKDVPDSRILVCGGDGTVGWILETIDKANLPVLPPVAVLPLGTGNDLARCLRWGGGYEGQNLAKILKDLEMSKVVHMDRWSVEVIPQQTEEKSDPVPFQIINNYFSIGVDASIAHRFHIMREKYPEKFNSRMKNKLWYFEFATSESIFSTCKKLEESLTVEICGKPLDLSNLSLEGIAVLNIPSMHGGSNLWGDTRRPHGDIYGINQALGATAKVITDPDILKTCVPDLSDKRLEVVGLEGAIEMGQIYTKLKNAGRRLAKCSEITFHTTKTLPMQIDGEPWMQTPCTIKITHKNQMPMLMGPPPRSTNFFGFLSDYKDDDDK
row,Structure (SMILES),IC50
1,"Cc1ccc2oc(C3(C)CCN(c4c(C(N)=O)c(=O)n(C)c5ccc(Br)cc45)CC3)nc2c1 [Example 203, 6-bromo-1-methyl-4-[4-methyl-4-(5-methyl-1,3-benzoxazol-2-yl)piperidin-1-yl]-2-oxo-1,2-dihydroquinoline-3-carboxamide]",0.9 nM
2,"Cn1c(=O)c(C#N)c(N2CCC(c3ccc(OCc4ccccc4)cc3)CC2)c2ccccc21 [Example 48, 4-{4-[4-(benzyloxy)phenyl]piperidin-1-yl}-1-methyl-2-oxo-1,2-dihydroquinoline-3-carbonitrile]",3 nM
3,"COc1ccc(C2CCN(c3c(C(N)=O)c(=O)n(C)c4cc(C5COC5)ccc34)CC2)cc1 [Example 115, 4-[4-(4-methoxyphenyl)piperidin-1-yl]-1-methyl-7-(oxetan-3-yl)-2-oxo-1,2-dihydroquinoline-3-carboxamide]",20 nM
4,"Cn1c(=O)c(C#N)c(N2CCC(c3ccn(-c4ccc(Cl)cc4)n3)CC2)c2ccccc21 [Example 369, 4-{4-[1-(4-chlorophenyl)-1H-pyrazol-3-yl]piperidin-1-yl}-1-methyl-2-oxo-1,2-dihydroquinoline-3-carbonitrile]",14 nM
5,"Cc1ccc2oc(C3CCN(c4c(C(N)=O)c(=O)n(C)c5c(Cl)cccc45)CC3)nc2c1 [Example 319, 8-chloro-1-methyl-4-[4-(5-methyl-1,3-benzoxazol-2-yl)piperidin-1-yl]-2-oxo-1,2-dihydroquinoline-3-carboxamide]",74 nM
6,"Cc1ccc2oc(C3CCN(c4c(C#N)c(=O)n(C)c5cc(OC6CCCOC6)ccc45)CC3)nc2c1 (stereo not drawn) [Example 414, 1-methyl-4-[4-(5-methyl-1,3-benzoxazol-2-yl)piperidin-1-yl]-7-{[oxan-3-yl]oxy}-2-oxo-1,2-dihydroquinoline-3-carbonitrile]",1.3 nM
7,"Cn1c(=O)c(C#N)c(N2CCC(c3ccc4cc(C(F)F)cnc4c3)CC2)c2ccccc21 [Example 378, 4-{4-[3-(difluoromethyl)quinolin-7-yl]piperidin-1-yl}-1-methyl-2-oxo-1,2-dihydroquinoline-3-carbonitrile]",23 nM
8,"Cn1c(=O)c(C#N)c(N2CCC(c3nc4ccccc4s3)CC2)c2cc(C#N)ccc21 [Example 176, 4-[4-(1,3-benzothiazol-2-yl)piperidin-1-yl]-1-methyl-2-oxo-1,2-dihydroquinoline-3,6-dicarbonitrile]",3 nM
9,"COCCc1ccc2nc(C3CCN(c4c(C#N)c(=O)n(C)c5ccccc45)CC3)oc2c1 [Example 284, 4-{4-[6-(2-methoxyethyl)-1,3-benzoxazol-2-yl]piperidin-1-yl}-1-methyl-2-oxo-1,2-dihydroquinoline-3-carbonitrile]",9.3 nM
10,"Cc1ccc2oc(C3CCN(c4c(C(N)=O)c(=O)n(C)c5cc(C(F)(F)F)ccc45)CC3)nc2c1 [Example 307, 1-methyl-4-[4-(5-methyl-1,3-benzoxazol-2-yl)piperidin-1-yl]-2-oxo-7-(trifluoromethyl)-1,2-dihydroquinoline-3-carboxamide]",5.7 nM
11,"COc1ccc2oc(C3(F)CCN(c4c(C#N)c(=O)n(C)c5ccccc45)CC3)nc2c1 [Example 393, 4-[4-fluoro-4-(5-methoxy-1,3-benzoxazol-2-yl)piperidin-1-yl]-1-methyl-2-oxo-1,2-dihydroquinoline-3-carbonitrile]",106 nM
12,"Cn1c(=O)c(C#N)c(N2CCC(c3nc4cc(Cl)ccc4s3)CC2)c2ccccc21 [Example 18, 4-[4-(5-chloro-1,3-benzothiazol-2-yl)piperidin-1-yl]-1-methyl-2-oxo-1,2-dihydroquinoline-3-carbonitrile]",3.7 nM
13,"Cc1ccc2oc(C3(C)CCN(c4c(C#N)c(=O)n(C)c5cc(C6COC6)ccc45)CC3)nc2c1 [Example 261, 1-methyl-4-[4-methyl-4-(5-methyl-1,3-benzoxazol-2-yl)piperidin-1-yl]-7-(oxetan-3-yl)-2-oxo-1,2-dihydroquinoline-3-carbonitrile]",35 nM
14,"Cn1c(=O)c(C#N)c(N2CCC(c3cccc4cnccc34)CC2)c2ccccc21 [Example 78, 4-[4-(isoquinolin-5-yl)piperidin-1-yl]-1-methyl-2-oxo-1,2-dihydroquinoline-3-carbonitrile]",104 nM
15,"Cc1ccc2c(c1)c(N1CCC(c3nc4ccccc4o3)CC1)c(C(N)=O)c(=O)n2C [Example 193, 4-[4-(1,3-benzoxazol-2-yl)piperidin-1-yl]-1,6-dimethyl-2-oxo-1,2-dihydroquinoline-3-carboxamide]",2.4 nM
16,"Cc1ccc2oc(C3CCN(c4c(C(N)=O)c(=O)n(C)c5cc([N+](=O)[O-])c(C)cc45)CC3)nc2c1 [Example 510, 1,6-dimethyl-4-[4-(5-methyl-1,3-benzoxazol-2-yl)piperidin-1-yl]-7-nitro-2-oxo-1,2-dihydroquinoline-3-carboxamide]",70 nM
17,"Cc1ccc2oc(C3CCN(c4c(C(N)=O)c(=O)n(C)c5cc(F)c(Br)cc45)CC3)nc2c1 [Example 563, 6-bromo-7-fluoro-1-methyl-4-[4-(5-methyl-1,3-benzoxazol-2-yl)piperidin-1-yl]-2-oxo-1,2-dihydroquinoline-3-carboxamide]",1.7 nM

row,Structure (SMILES),IC50
1,"Cc1ccc2nc(C3CCN(c4c(C(N)=O)c(=O)n(C)c5ccc(C)cc45)CC3)oc2c1 [Example 196, 1,6-dimethyl-4-[4-(6-methyl-1,3-benzoxazol-2-yl)piperidin-1-yl]-2-oxo-1,2-dihydroquinoline-3-carboxamide]",3.1 nM
2,"Cn1c(=O)c(C#N)c(N2CCC(c3nc4ccccc4o3)CC2)c2cccc(Br)c21 [Example 161, 4-[4-(1,3-benzoxazol-2-yl)piperidin-1-yl]-8-bromo-1-methyl-2-oxo-1,2-dihydroquinoline-3-carbonitrile]",1100 nM
3,"Cc1ccc2oc(C3CCN(c4c(C#N)c(=O)n(C)c5ccc(F)cc45)CC3)nc2c1 [Example 217, 6-fluoro-1-methyl-4-[4-(5-methyl-1,3-benzoxazol-2-yl)piperidin-1-yl]-2-oxo-1,2-dihydroquinoline-3-carbonitrile]",1 nM
4,"COc1ccc(C2CCN(c3c(C#N)c(=O)n(C)c4cc(-c5ccccc5)ccc34)CC2)cc1 [Example 92, 4-[4-(4-methoxyphenyl)piperidin-1-yl]-1-methyl-2-oxo-7-phenyl-1,2-dihydroquinoline-3-carbonitrile]",9.8 nM
5,"Cc1ccc2oc(C3CCN(c4c(C(N)=O)c(=O)n(C)c5ccc(OCC(C)(F)F)cc45)CC3)nc2c1 [Example 503, 6-(2,2-difluoropropoxy)-1-methyl-4-[4-(5-methyl-1,3-benzoxazol-2-yl)piperidin-1-yl]-2-oxo-1,2-dihydroquinoline-3-carboxamide]",2690 nM
6,"Cc1ccc2c(N3CCC(c4ccccc4)CC3)c(C#N)c(=O)n(C)c2c1 [Example 255, 1,7-dimethyl-2-oxo-4-(4-phenylpiperidin-1-yl)-1,2-dihydroquinoline-3-carbonitrile]",18 nM
7,"Cn1c(=O)c(C#N)c(N2CCC(c3ccc(Br)cc3)CC2)c2ccccc21 [Example 88, 4-[4-(4-bromophenyl)piperidin-1-yl]-1-methyl-2-oxo-1,2-dihydroquinoline-3-carbonitrile]",47 nM
8,"Cc1ccc2oc(C3CCN(c4c(C#N)c(=O)n(C)c5ccc(S(C)(=O)=O)cc45)CC3)nc2c1 [Example 339, 6-(methanesulfonyl)-1-methyl-4-[4-(5-methyl-1,3-benzoxazol-2-yl)piperidin-1-yl]-2-oxo-1,2-dihydroquinoline-3-carbonitrile]",67 nM
9,"Cc1ccc2oc([C@H]3CCN(c4c(C#N)c(=O)n(C)c5ccccc45)[C@@H](C)C3)nc2c1 [Example 234, 1-methyl-4-[(2S,4S)-2-methyl-4-(5-methyl-1,3-benzoxazol-2-yl)piperidin-1-yl]-2-oxo-1,2-dihydroquinoline-3-carbonitrile]",1.8 nM
10,"Cc1ccc2oc(C3CCN(c4c(C#N)c(=O)n(C)c5ccc(OCC6CC6)cc45)CC3)nc2c1 [Example 408, 6-(cyclopropylmethoxy)-1-methyl-4-[4-(5-methyl-1,3-benzoxazol-2-yl)piperidin-1-yl]-2-oxo-1,2-dihydroquinoline-3-carbonitrile]",15 nM
11,"Cn1c(=O)c(C#N)c(N2CCC(O)(c3cc4ccccc4s3)CC2)c2ccccc21 [Example 340, 4-[4-(1-benzothiophen-2-yl)-4-hydroxypiperidin-1-yl]-1-methyl-2-oxo-1,2-dihydroquinoline-3-carbonitrile]",72 nM
12,"Cc1ccc2oc(C3(C)CCN(c4c(C(N)=O)c(=O)n(C)c5ccc(P(C)(C)=O)cc45)CC3)nc2c1 [Example 452, 6-(dimethylphosphoryl)-1-methyl-4-[4-methyl-4-(5-methyl-1,3-benzoxazol-2-yl)piperidin-1-yl]-2-oxo-1,2-dihydroquinoline-3-carboxamide]",2570 nM
13,"COc1ccc(C2CCN(c3c(C#N)c(=O)n(C)c4ccccc34)CC2)cc1 [Example 41, 4-[4-(4-methoxyphenyl)piperidin-1-yl]-1-methyl-2-oxo-1,2-dihydroquinoline-3-carbonitrile]",4.9 nM
14,"Cc1ccccc1-c1nnc(C2CCN(c3c(C#N)c(=O)n(C)c4ccccc34)CC2)o1 [Example 351, 1-methyl-4-{4-[5-(2-methylphenyl)-1,3,4-oxadiazol-2-yl]piperidin-1-yl}-2-oxo-1,2-dihydroquinoline-3-carbonitrile]",87 nM
15,"CCCc1noc(C2CCN(c3c(C#N)c(=O)n(C)c4ccccc34)CC2)n1 [Example 148, 1-methyl-2-oxo-4-[4-(3-propyl-1,2,4-oxadiazol-5-yl)piperidin-1-yl]-1,2-dihydroquinoline-3-carbonitrile]",369 nM
16,"CCC1(c2nc3cc(C)ccc3o2)CCN(c2c(C#N)c(=O)n(C)c3ccccc23)CC1 [Example 140, 4-[4-ethyl-4-(5-methyl-1,3-benzoxazol-2-yl)piperidin-1-yl]-1-methyl-2-oxo-1,2-dihydroquinoline-3-carbonitrile]",1.6 nM
